In paper PMC2632993, “Conformational changes in α7 acetylcholine receptors underlying allosteric modulation by divalent cations” (BMC Pharmacology, 2009):

Legend:
Test in all cases: MTSEA thiol modification rate (SCAM) from ACh-evoked currents in oocytes
Assay type in all cases: cell-based, chick
Settings in all cases: 10 mM Ba^2+
[1] = target: α7 AChR E^172C mutant (C^115A/L^247T background) (Gallus gallus, UniProt P22770, C138A/E195C/L270T)
Description: (§1) ACh-evoked current amplitudes decreased following brief, repeated exposure to a limiting concentration of MTSEA (5 μM, 15 seconds). To ensure that the modification reactions were complete, all rate measurements included a final prolonged application of ~100-fold higher concentrations of MTSEA (Fig. 3A and 3B, right). Currents measured following this application represent the endpoint of the reaction between MTSEA and receptors. When the same protocol included Ba^2+ pretreatment and co-application with MTSEA (see Methods), the decreases in current amplitudes were slowed but the same endpoint was obtained (Fig. 3B). Normalized current amplitudes were plotted as a function of the cumulative time of exposure to MTSEA, and pseudo first-order rates were extracted from the single-exponential fits (Fig. 3C).
(§2) Figure 3 Barium slows the rate of MTSEA modification at M^37C. Example of experimental paradigm used to assess Ba^2+ effects on modification rates. […] Endpoints of MTSEA modification are determined by prolonged application of 500 μM MTSEA (right). (B) The same protocol, including Ba^2+ pretreatment and co-application with MTSEA. Current traces are truncated in both (A) and (B) between consecutive MTSEA applications; in all cases the currents were allowed to return to baseline prior to the next application of MTSEA ± ACh. (C) Peak current amplitudes from (A) and (B) are normalized and plotted versus total MTSEA exposure time. Data from this single experiment (no error bars) are fitted to a single-exponential decay (solid line) to extract an apparent pseudo first-order rate constant. The pseudo first-order rate constants calculated in this experiment were 0.011 s^-1 and 0.0019 s^-1 for control (A) and +Ba^2+ (B) measurements, respectively. Second-order rate constants are calculated from these values (Figures 4–6; Table 2).
(§3) Oocytes were superfused in normal extracellular solution containing a reduced Ca^2+ concentration (ESLC; 96 mM NaCl, 2 mM KCl, 1 mM MgCl2, 0.1 mM CaCl2, and 10 mM HEPES, pH 7.5). This solution minimized Ca^2+ influx and eliminated Ca^2+-activated chloride currents. Two-electrode voltage clamp was performed with a GeneClamp 500B controlled by pCLAMP8 software (Molecular Devices, Sunnyvale, CA). Electrodes were filled with 3 M KCl contacting Ag-AgCl wires and had resistances of 0.5 to 2.0 MΩ. Currents were recorded at a constant holding potential of -60 mV. Currents were low pass filtered at 50 Hz and sampled at 100 Hz. Agonist dose-response curves were obtained as described previously, and data were fit to the Hill equation using Origin software (Microcal Software, Northampton, MA).
(§4) MTSEA was prepared daily in distilled water and stored on ice. Stock solution was diluted to the appropriate working concentration in ESLC immediately before each application. […] The limiting dose, yielding 20–40% of the maximal MTSEA effect, was identified for each mutant. […] To measure the effect of Ba^2+ on modification rates we pre-applied 10 mM Ba^2+ for 30 seconds prior to co-application of 10 mM Ba^2+ plus MTSEA. This concentration of Ba^2+ is equivalent to an approximate […] for the modulatory effects in both parental and mutant AChRs. Kinetic data were analyzed as described previously; rate data were fit to a single exponential to extract a pseudo-first order rate constant; this was divided by the MTSEA concentration used to determine the second order rate constant for thiol modification.

[2] = target: α7 AChR N^52C mutant (C^115A/L^247T background) (Gallus gallus, UniProt P22770, C138A/L270T/N75C)
Description: as §1, §2, §3, §4

[3] = target: α7 AChR E^44C mutant (C^115A/L^247T background) (Gallus gallus, UniProt P22770, C138A/E67C/L270T)
Description: as §1, §2, §3, §4

[4] = target: α7 AChR M^40C/E^172Q mutant (C^115A/L^247T background) (Gallus gallus, UniProt P22770, C138A/E195Q/L270T/M63C)
Description: as §1, §2, §3, §4

[5] = target: α7 AChR N^170C mutant (C^115A/L^247T background) (Gallus gallus, UniProt P22770, C138A/L270T/N193C)
Description: as §1, §2, §3, §4

[6] = target: T1, α7 AChR M^40C mutant (C^115A/L^247T background) (Gallus gallus, UniProt P22770, C138A/L270T/M63C)
T1 construct: expressed in transfected cells; host or cells: Xenopus laevis oocytes injected with cRNA
Description: as §1, §2, §3, §4

[7] = target: α7 AChR M^37C mutant (C^115A/L^247T background) (Gallus gallus, UniProt P22770, C138A/L270T/M60C)
Description: as §1, §2, §3, §4

Structure (SMILES): [Ba+2].[Cl-].[Cl-] [Ba^2+, BaCl2]
- effect of Ba^2+ on MTSEA modification rate [1]: significant Ba^2+-dependent decreases
- effect of Ba^2+ on MTSEA modification rate [2]: no significant effect
- effect of Ba^2+ on MTSEA modification rate [3]: significant Ba^2+-dependent decreases
- effect of Ba^2+ on MTSEA modification rate [4]: significant slowing
- effect of Ba^2+ on MTSEA modification rate [5]: the same as that measured in MTSEA alone
- effect of Ba^2+ on MTSEA modification rate [6]: significant decreases
- effect of Ba^2+ on MTSEA modification rate [7]: significant decreases
